# Assays:
# [1] = Characterization of NO release (chemiluminescence nitric oxide analyzer); type: physicochemical
# C. auris (MYA-5001) = type: cell-based, Candida auris
# [2] = tested on: C. albicans (ATCC MYA-2876); experiment: Checkerboard assay of NO donors with antifungals; type: cell-based, Candida albicans
# [3] = tested on: C. neoformans (ATCC208821); type: cell-based, Cryptococcus neoformans
# [4] = tested on: MatTek EpiAirway tissue (AIR-100); experiment: cells; type: cell-based; settings: Homo sapiens, 24 h, read-out: IC50 (concentration needed to inhibit tissue viability by 50%)
# Candida albicans = experiment: Susceptibility assay (MIC, broth microdilution, CLSI M27); type: cell-based; settings: for MIC: 24 h; for NO dose at MIC: calculated NO dose at MIC
# [5] = tested on: Aspergillus fumigatus spores; experiment: Susceptibility assay for sporulating fungi (MIC, EUCAST E.Def.9.4); type: cell-based
# Candida auris = experiment: Susceptibility assay (MIC, broth microdilution, CLSI M27); type: cell-based; settings: for MIC / NO dose at MIC: Candidozyma auris; for MIC: 24 h; for NO dose at MIC: calculated NO dose at MIC
# C. auris (ATCC MYA-5001) = experiment: Checkerboard assay of NO donors with antifungals; type: cell-based, Candida auris
# Cryptococcus neoformans = experiment: Susceptibility assay (MIC, broth microdilution, CLSI M27); type: cell-based; settings: for MIC / NO dose at MIC: Cryptococcus neoformans; for MIC: 72 h; for NO dose at MIC: calculated NO dose at MIC
# [6] = tested on: C. neoformans (ATCC 208821); experiment: Checkerboard assay of NO donors with antifungals; type: cell-based, Cryptococcus neoformans
# panel of fungal isolates = experiment: Susceptibility assays, summary over the panel of fungal isolates; type: cell-based; settings: IC50 AIR-100 / MIC
# [7] = phosphate-buffered saline 10 mM, pH 7.4, 37 °C
# [8] = NO donor combined with 5-fluorocytosine
# [9] = NO donor combined with amphotericin B
# [10] = NO donor combined with butenafine
# [11] = NO donor combined with caspofungin
# [12] = NO donor combined with fluconazole
# [13] = NO donor combined with miconazole
# [14] = ATCC14053, Candida albicans ATCC 14053
# [15] = ATCC18804, Candida albicans ATCC 18804
# [16] = Cryptococcus neoformans ATCC MYA-4566
# [17] = Cryptococcus neoformans ATCC MYA-4567
structure (smiles),measurement,setting,value
"NCCCN(CCCN)/[N+]([O-])=N/O [DPTA/NO, bis(3-aminopropyl) amine/NO]","[NO]t, total NO released over full duration",[1]; pH 7.4,7.0 ± 1.1 µmol/mg
same,"[NO]max, maximum instantaneous NO concentration",[1]; [7],2867 ± 211 ppb mg^−1
same,"td, duration of NO release",[1]; [7],31.0 ± 3.3 h
same,change in MIC or MFCs after serial passaging,C. auris (MYA-5001),no changes
same,checkerboard classification,[2]; [8],I (indifferent (I))
same,∑FIC,[2]; [8],≥ 1
same,checkerboard classification,[2]; [9],I (indifferent (I))
same,∑FIC,[2]; [9],≥ 1
same,checkerboard classification,[2]; [10],I (indifferent (I))
same,∑FIC,[2]; [10],≥ 1
same,checkerboard classification,[2]; [11],I (indifferent (I))
same,∑FIC,[2]; [11],≥ 1
same,checkerboard classification,[2]; [12],I (indifferent (I))
same,∑FIC,[2]; [12],≥ 1
same,checkerboard classification,[2]; [13],I (indifferent (I))
same,∑FIC,[2]; [13],≥ 1
same,outcome of passaging at sub-MIC dose,[3],yeast death after the second passage
same,IC50,[4],18 mg/mL
same,MIC,Candida albicans; [14],625 µg/mL
same,NO dose at MIC,Candida albicans; [14],131 µg/mL
same,MIC,Candida albicans; [15],625 µg/mL
same,NO dose at MIC,Candida albicans; [15],131 µg/mL
same,Selectivity Index (IC50 AIR-100 / MIC),Candida albicans; C. albicans ATCC 14053,28
same,Selectivity Index (IC50 AIR-100 / MIC),Candida albicans; C. albicans ATCC 18804,28
same,Selectivity Index (IC50 AIR-100 / MIC),Candida albicans; C. albicans ATCC MYA-2876,35
same,MIC,Candida albicans; Candida albicans ATCC MYA-2876,500 µg/mL
same,NO dose at MIC,Candida albicans; Candida albicans ATCC MYA-2876,105 µg/mL
same,Selectivity Index (IC50 AIR-100 / MIC),[5]; A. fumigatus ATCC 1022,14
same,MIC,"[5]; ATCC1022, Aspergillus fumigatus ATCC 1022 spores",1250 µg/mL
same,NO dose at MIC,"[5]; ATCC1022, Aspergillus fumigatus ATCC 1022 spores, calculated NO dose at MIC",262 µg/mL
same,Selectivity Index (IC50 AIR-100 / MIC),Candida auris; C. auris ATCC MYA-5000,28
same,Selectivity Index (IC50 AIR-100 / MIC),Candida auris; C. auris ATCC MYA-5001,35
same,Selectivity Index (IC50 AIR-100 / MIC),Candida auris; C. auris ATCC MYA-5003,57
same,MIC,Candida auris; Candida auris ATCC MYA-5000,625 µg/mL
same,MIC,Candida auris; Candida auris ATCC MYA-5001,500 µg/mL
same,MIC,Candida auris; Candida auris ATCC MYA-5003,310 µg/mL
same,NO dose at MIC,Candida auris; Candida auris ATCC MYA-5000,131 µg/mL
same,NO dose at MIC,Candida auris; Candida auris ATCC MYA-5001,105 µg/mL
same,NO dose at MIC,Candida auris; Candida auris ATCC MYA-5003,65.3 µg/mL
same,checkerboard classification,C. auris (ATCC MYA-5001); [8],I (indifferent (I))
same,∑FIC,C. auris (ATCC MYA-5001); [8],≥ 1
same,checkerboard classification,C. auris (ATCC MYA-5001); [9],I (indifferent (I))
same,∑FIC,C. auris (ATCC MYA-5001); [9],≥ 1
same,checkerboard classification,C. auris (ATCC MYA-5001); [10],I (indifferent (I))
same,∑FIC,C. auris (ATCC MYA-5001); [10],≥ 1
same,checkerboard classification,C. auris (ATCC MYA-5001); [11],I (indifferent (I))
same,∑FIC,C. auris (ATCC MYA-5001); [11],≥ 1
same,checkerboard classification,C. auris (ATCC MYA-5001); [12],I (indifferent (I))
same,∑FIC,C. auris (ATCC MYA-5001); [12],≥ 1
same,checkerboard classification,C. auris (ATCC MYA-5001); [13],A (additive (A))
same,∑FIC,C. auris (ATCC MYA-5001); [13],0.625
same,Selectivity Index (IC50 AIR-100 / MIC),Cryptococcus neoformans; C. neoformans ATCC 208821,18
same,Selectivity Index (IC50 AIR-100 / MIC),Cryptococcus neoformans; C. neoformans ATCC MYA-4566,28
same,Selectivity Index (IC50 AIR-100 / MIC),Cryptococcus neoformans; C. neoformans ATCC MYA-4567,28
same,MIC,Cryptococcus neoformans; [16],625 µg/mL
same,MIC,Cryptococcus neoformans; [17],625 µg/mL
same,MIC,"Cryptococcus neoformans; ATCC208821, 72 h, Cryptococcus neoformans ATCC 208821",1000 µg/mL
same,NO dose at MIC,"Cryptococcus neoformans; ATCC208821, Cryptococcus neoformans ATCC 208821",210 µg/mL
same,NO dose at MIC,Cryptococcus neoformans; [16],131 µg/mL
same,NO dose at MIC,Cryptococcus neoformans; [17],131 µg/mL
same,checkerboard classification,[6]; [8],I (indifferent (I))
same,∑FIC,[6]; [8],≥ 1
same,checkerboard classification,[6]; [9],I (indifferent (I))
same,∑FIC,[6]; [9],≥ 1
same,checkerboard classification,[6]; [10],I (indifferent (I))
same,∑FIC,[6]; [10],≥ 1
same,checkerboard classification,[6]; [11],I (indifferent (I))
same,∑FIC,[6]; [11],≥ 1
same,checkerboard classification,[6]; [12],I (indifferent (I))
same,∑FIC,[6]; [12],≥ 1
same,checkerboard classification,[6]; [13],S (Synergistic (S))
same,∑FIC,[6]; [13],0.375
same,"selectivity indices, all strains",panel of fungal isolates,below 100
